Converted amounts (≈) assume the structure as drawn. Where two headings read alike, the source gives them in different places.
Assays:
Assay type in all cases: cell-based
B. subtilis DSM-10 = assay: Antimicrobial assay, MIC by microbroth dilution; conditions: 16 h, cation-adjusted Muller-Hinton broth; for MIC: Bacillus subtilis, DSM10
Protocol: (§1) Bacterial strains used in susceptibility assays (minimum inhibitory concentrations, MIC) were either part of our internal strain collection or were purchased form the German Collection of Microorganisms and Cell Cultures (DSMZ). All compounds were prepared as DMSO stocks and MIC values were determined in standard microbroth dilution assays. Overnight cultures of bacteria were diluted in cation-adjusted Muller-Hinton broth (BBL™, BD) and were adjusted to approximately 10^5 cfu/mL. […] Bacteria were grown in the presence of the derivatives in serial dilution for 16 h at their optimal growth temperature. MIC values were determined according to CLSI guidelines (antibiotic concentration at which no visible bacterial growth is observed).

C. glutamicum DSM-20300 = assay: Antimicrobial assay, MIC by microbroth dilution; conditions: 16 h, cation-adjusted Muller-Hinton broth; for MIC: Corynebacterium glutamicum, DSM20300
Protocol: as §1

E. coli TolC (+PMBN) = assay: Antimicrobial assay, MIC by microbroth dilution with PMBN; conditions: 16 h, 3 μg/mL polymyxin B nonapeptide (PMBN) added
Protocol: Bacterial strains used in susceptibility assays (minimum inhibitory concentrations, MIC) were either part of our internal strain collection or were purchased form the German Collection of Microorganisms and Cell Cultures (DSMZ). All compounds were prepared as DMSO stocks and MIC values were determined in standard microbroth dilution assays. Overnight cultures of bacteria were diluted in cation-adjusted Muller-Hinton broth (BBL™, BD) and were adjusted to approximately 10^5 cfu/mL. For the E. coli culture, 3 μg/mL of polymyxin B nonapeptide (PMBN) was added to increase permeability of the outer membrane as chlorotonils were previously shown to not penetrate into Gram-negative cells. Bacteria were grown in the presence of the derivatives in serial dilution for 16 h at their optimal growth temperature. MIC values were determined according to CLSI guidelines (antibiotic concentration at which no visible bacterial growth is observed).

[1] = tested on: L-929 (murine fibroblasts); assay: Cytotoxicity assay (MTT, 5 d); conditions: Mus musculus, L929, 120 h
Protocol: Cytotoxicity Assay The murine fibroblast cell line L-929 was obtained from the German Collection of Microorganisms and Cell Cultures (DSMZ) and maintained under conditions recommended by the depositor. Cells were seeded at 6×10^3 cells per well of sterile 96-well plates in 180 μL complete medium and treated with the compounds in serial dilution after 2 h of equilibration. After 5 d, viability was assessed by the MTT method. After 1.5 h incubation with 0.5 mg/mL MTT reagent, cells were washed with PBS and 100 μL of 2-propanol/10 N HCl (250:1) was added. The absorbance at 570 nm was determined on a microplate reader and cell viability was expressed as percentage relative to the respective solvent control. Half-inhibitory concentrations (IC50) were determined by sigmoidal curve fitting.

[2] = tested on: P. falciparum 3D7 (sensitive strain); assay: Antiplasmodial in vitro drug sensitivity assay (HRP2-ELISA); conditions: P. falciparum 3D7 (sensitive strain), read-out: IC50 against P. falciparum 3D7
Protocol: (§2) Two laboratory strains of P. falciparum, the chloroquine sensitive 3D7 and the multi-resistant Dd2 were kept in continuous culture as previously described (Trager and Jensen 1976). In brief, parasites were kept in complete culture medium (RPMI 1640, 25 mM HEPES, 2 mM L-glutamine, 50 μg/ml gentamicin and 0.5% w/v AlbuMAX) at 37° C., 5% CO2 and 5% oxygen at 5% hematocrit with daily change of medium. Synchronization was performed with sorbitol twice a week (Lambros and Vanderberg 1979).
(§3) In Vitro Drug Sensitivity Assay
(§4) All compounds were dissolved in DMSO at stock dilutions between 25 and 100 mM; the reference drug chloroquine diphosphate (MW: 515.86) was diluted in distilled water and DMSO, respectively. […] Antiplasmodial activity of the different compounds was tested in a drug sensitivity assay against the two laboratory strains using the histidine-rich protein 2 (HRP2) assay as described previously (Noedl 2005). In brief: 96 well plates were pre-coated with the different compounds in a threefold dilution before ring stage parasites were added in complete culture medium at a hematocrit of 1.5% and a parasitemia of 0.05% in a total volume of 225 μl per well. After three days of incubation plates were frozen until analyzed by HRP2-ELISA. All compounds were evaluated in duplicate in at least two independent experiments.

[3] = tested on: P. falciparum Dd2 (resistant strain); assay: as above; conditions: P. falciparum Dd2 (resistant strain), read-out: IC50 against P. falciparum Dd2
Protocol: as §2, §3, §4

S. aureus Newman = assay: Antimicrobial assay, MIC by microbroth dilution; conditions: 16 h, cation-adjusted Muller-Hinton broth; for MIC: Staphylococcus aureus, NEWMAN
Protocol: as §1

Gram-positive bacteria = assay: Antimicrobial assay, MIC against a range of Gram-positive bacteria (Table 5)
Protocol: as §1

SMILES | MIC (B. subtilis DSM-10) [mg/L] | MIC (C. glutamicum DSM-20300) [mg/L] | MIC E. coli TolC (+PMBN) (E. coli TolC (+PMBN)) [mg/L] | IC50 [1] [µM] | MIC (S. aureus Newman) [mg/L] | IC50 ([2]; Plasmodium falciparum) [µM] | IC50 ([3]; Plasmodium falciparum) [µM] | also measured
CO[C@@H]1[C@@H](C)[C@H]2[C@@H]3C(=O)C(Cl)(Cl)C(=O)[C@H](C)C(=O)O[C@@H](C)/C=C/C=C\[C@@H](C)[C@@H]3C=C[C@@H]2C[C@@]1(C)O [ChA-Epo2-OMe] | > 3.2 | > 3.2 | 3.2 | > 100 |  |  |  | IC50 ([2]; Plasmodium falciparum, μM): > 11 µM; IC50 ([3]; Plasmodium falciparum, μM): > 11 µM
CC(C)CCO[C@@H]1[C@@H](C)[C@H]2[C@@H]3C(=O)C(Cl)(Cl)C(=O)[C@H](C)C(=O)O[C@@H](C)/C=C/C=C\[C@@H](C)[C@@H]3C=C[C@@H]2C[C@@]1(C)O [ChA-Epo2-Oisoamyl] | 0.8 (≈ 1.37 µM) | 3.2 (≈ 5.48 µM) | 0.8 | 44.7 | 1.6 (≈ 2.74 µM) |  |  | IC50 ([2]; Plasmodium falciparum, μM): > 11 µM; IC50 ([3]; Plasmodium falciparum, μM): > 11 µM
CO[C@]1(C)C[C@H]2C=C[C@@H]3[C@@H](C(=O)C(Cl)(Cl)C(=O)[C@H](C)C(=O)O[C@@H](C)/C=C/C=C\[C@H]3C)[C@@H]2[C@H](C)[C@H]1O [ChA-Epo1-OMe] | 6.4 (≈ 12.1 µM) | > 6.4 | 0.8 to 1.6 |  | 1.6 (≈ 3.03 µM) |  |  | 
C[C@@H]1C(=O)O[C@@H](C)/C=C/C=C\[C@@H](C)[C@@H]2C=C[C@@H]3C[C@@](C)(O)[C@H](OCc4ccccc4)[C@@H](C)[C@H]3[C@@H]2C(=O)C(Cl)(Cl)C1=O [ChA-Epo2-OBn] | 0.4 (≈ 0.663 µM) | 3.2 (≈ 5.3 µM) | >3.2 |  | 0.4 (≈ 0.663 µM) |  |  | 
C[C@@H]1C(=O)O[C@@H](C)/C=C/C=C\[C@@H](C)[C@@H]2C=C[C@@H]3C[C@@](C)(O)[C@H](Br)[C@@H](C)[C@H]3[C@@H]2C(=O)C(Cl)(Cl)C1=O [ChA-Epo2-Br] | 0.05 (≈ 0.0868 µM) | 0.1 (≈ 0.174 µM) | 0.2 | 1.1 | 0.05 (≈ 0.0868 µM) | 0.0251 | 0.0644 | 
CCO[C@]1(C)C[C@H]2C=C[C@@H]3[C@@H](C(=O)C(Cl)(Cl)C(=O)[C@H](C)C(=O)O[C@@H](C)/C=C/C=C\[C@H]3C)[C@@H]2[C@H](C)[C@H]1O [ChA-Epo1-OEt] | > 6.4 | > 6.4 | 1.6 |  | > 1.6 |  |  | 
C[C@@H]1C(=O)O[C@@H](C)/C=C/C=C\[C@@H](C)[C@@H]2C=C[C@@H]3C[C@@](C)(Cl)[C@H](O)[C@@H](C)[C@H]3[C@@H]2C(=O)C(Cl)(Cl)C1=O [ChA-Epo1-Cl] | 3.2 (≈ 6.02 µM) | > 3.2 | 3.2 |  | 3.2 (≈ 6.02 µM) | > 2.1 | > 2.1 | 
CC1=C[C@@H](C)[C@H]2[C@@H]3C(O)=C(Cl)C(=O)[C@H](C)C(=O)O[C@@H](C)/C=C/C=C\[C@@H](C)[C@@H]3C=C[C@@H]2C1 [Chlorotonil B (ChB), Chlorotonil B, reference compound] |  |  | >3.2 |  |  |  |  | MIC B. subtilis DSM-10 (B. subtilis DSM-10): 0.2 mg/L (≈ 0.449 µM); MIC C. glutamicum DSM-20300 (C. glutamicum DSM-20300): 0.1 mg/L (≈ 0.225 µM); MIC S. aureus Newman (S. aureus Newman): 0.2 mg/L (≈ 0.449 µM); IC50 [2]: 0.0966 µM; IC50 [3]: 0.0636 µM; MIC (Gram-positive bacteria; B. megaterium): 0.1 mg/L (≈ 0.225 µM); MIC (Gram-positive bacteria; E. faecalis 20478): >3.2 mg/L; MIC (Gram-positive bacteria; E. faecalis 29212): >3.2 mg/L; MIC (Gram-positive bacteria; E. faecium 17050 (VRE)): >3.2 mg/L; MIC (Gram-positive bacteria; E. faecium 20477): >3.2 mg/L; MIC (Gram-positive bacteria; M. luteus): 0.4 mg/L (≈ 0.899 µM); MIC (Gram-positive bacteria; M. smegmatis): 0.0125 mg/L (≈ 0.0281 µM); MIC (Gram-positive bacteria; S. epidermidis 28765): >3.2 mg/L; MIC (Gram-positive bacteria; S. pneumoniae 11865 (PRSP)): >16 mg/L; MIC (Gram-positive bacteria; S. pneumoniae 20566): 1.6 mg/L (≈ 3.6 µM)
C[C@H]1[C@H]2[C@@H]3C(=O)/C(Cl)=C(\O)[C@H](C)C(=O)O[C@@H](C)/C=C/C=C\[C@@H](C)[C@@H]3C=C[C@@H]2C[C@@]2(C)O[C@@H]12 [ChB1-Epo] |  |  |  |  |  |  |  | MIC (Gram-positive bacteria; Enterococcus faecalis, E. faecalis 20478, read-out: MIC): 0.8 mg/L (≈ 1.74 µM); MIC (Gram-positive bacteria; Enterococcus faecalis, E. faecalis 29212, read-out: MIC): 0.8 mg/L (≈ 1.74 µM); MIC (Gram-positive bacteria; Enterococcus faecium, E. faecium 20477, read-out: MIC): 0.2 mg/L (≈ 0.434 µM); MIC (Gram-positive bacteria; Enterococcus faecium, VRE, E. faecium 17050 (VRE), read-out: MIC): 32 mg/L (≈ 69.4 µM); MIC (Gram-positive bacteria; Micrococcus luteus, M. luteus, read-out: MIC): 0.0125 mg/L (≈ 0.0271 µM); MIC (Gram-positive bacteria; Mycolicibacterium smegmatis, M. smegmatis, read-out: MIC): 16 mg/L (≈ 34.7 µM); MIC (Gram-positive bacteria; Priestia megaterium, B. megaterium, read-out: MIC): 0.0125 mg/L (≈ 0.0271 µM); MIC (Gram-positive bacteria; Staphylococcus epidermidis, S. epidermidis 28765, read-out: MIC): 0.05 mg/L (≈ 0.108 µM); MIC (Gram-positive bacteria; Streptococcus pneumoniae, S. pneumoniae 20566, read-out: MIC): 0.4 mg/L (≈ 0.868 µM)
CCO[C@@H]1[C@@H](C)[C@H]2[C@@H]3C(=O)C(Cl)(Cl)C(=O)[C@H](C)C(=O)O[C@@H](C)/C=C/C=C\[C@@H](C)[C@@H]3C=C[C@@H]2C[C@@]1(C)O [ChA-Epo2-OEt] | > 3.2 | > 3.2 | >3.2 | > 100 |  |  |  | IC50 ([2]; Plasmodium falciparum, μM): > 11 µM; IC50 ([3]; Plasmodium falciparum, μM): > 11 µM
C[C@@H]1C(=O)O[C@@H](C)/C=C/C=C\[C@@H](C)[C@@H]2C=C[C@@H]3C[C@@](C)(O)[C@H](OCC(O)CO)[C@@H](C)[C@H]3[C@@H]2C(=O)C(Cl)(Cl)C1=O (stereo partly shown) [ChA-Epo2-glycerol] | > 3.2 | > 3.2 | >3.2 |  | 4 (≈ 6.81 µM) | > 1.9 | > 1.9 | 
CCCCO[C@@H]1[C@@H](C)[C@H]2[C@@H]3C(=O)C(Cl)(Cl)C(=O)[C@H](C)C(=O)O[C@@H](C)/C=C/C=C\[C@@H](C)[C@@H]3C=C[C@@H]2C[C@@]1(C)O [ChA-Epo2-OBu] | 0.8 (≈ 1.4 µM) | > 3.2 | >3.2 | 49.4 | 1.6 (≈ 2.81 µM) |  |  | IC50 ([2]; Plasmodium falciparum, μM): > 11 µM; IC50 ([3]; Plasmodium falciparum, μM): > 11 µM
C[C@@H]1C(=O)O[C@@H](C)/C=C/C=C\[C@@H](C)[C@@H]2C=C[C@@H]3C[C@@](C)(O)[C@H](F)[C@@H](C)[C@H]3[C@@H]2C(=O)C(Cl)(Cl)C1=O [ChA-Epo2-F] | 0.2 (≈ 0.388 µM) | 0.4 to 0.8 (≈ 0.776 to 1.55 µM) | 0.8 |  | 0.2 (≈ 0.388 µM) | 0.136 | 0.329 | 
C[C@@H]1C(=O)O[C@@H](C)/C=C/C=C\[C@@H](C)[C@@H]2C=C[C@@H]3C[C@@](C)(O)[C@H](OCCCCO)[C@@H](C)[C@H]3[C@@H]2C(=O)C(Cl)(Cl)C1=O [ChA-Epo2-OBuOH] | > 3.2 | 3.2 (≈ 5.46 µM) | 1.6 |  | > 3.2 |  |  | 
C[C@@H]1C(=O)O[C@@H](C)/C=C/C=C\[C@@H](C)[C@@H]2C=C[C@@H]3C[C@@](C)(O)[C@H](O)[C@@H](C)[C@H]3[C@@H]2C(=O)C(Cl)(Cl)C1=O [ChA-Epo2-OH] | > 6.4 | > 6.4 | >6.4 |  |  | > 2.17 | > 2.17 | 
